Data from publication PMC10381533, “Inhibitory Effects of the Fungal Pigment Rubiginosin C on Hyphal and Biofilm Formation in Candida albicans and Candida auris” (Journal of Fungi, 2023).
Several values for one entry are separate records, joined by “and”; a condition that tells them apart may be missing. Identical values can stand only once.

Legend:
Assay type in all cases: cell-based
[1] = test system: Pseudomonas aeruginosa (PA 14) DSM 19882 biofilm; test: Crystal violet biofilm inhibition assay, P. aeruginosa; details: Pseudomonas aeruginosa, DSM19882, assay conducted once, read-out: inhibition of P. aeruginosa biofilm formation compared to solvent control (= 0%)
Description: Selected azaphilones Rub C and W, Rut A and B were tested against the formation of biofilms in Pseudomonas aeruginosa (PA 14) DSM 19882. Bacterial strain was precultured in 25 mL LB medium (Luria - Bertani Broth) with a 250 mL flask at 37 °C with shaking 100 rpm overnight. The turbidity of the baterial solution was measured and diluted to match the turbidity of a 0.1 McFarland standard in M63 medium, which is supplemented with magnesium sulfate, glucose and casamino acids as previously described. The compounds were added into 150 μL bacterial solution at the concentration (250–2 μg/mL) then the solution was added in U-bottom 96 well plate (Falcon ref.no 351177, Thermo Fisher Scientific). The plates were incubated at 37 °C at 150 rpm for 24 h and biofilms were established at the air liquid interface. The plates were rinsed once by using PBS buffer, the biofilms were stained by 150 μL 0.1% CV at room temperature for 15 min and then rinsed two times by using PBS buffer. The absorbance was quantified with the plate reader (Synergy 2, BioTek) at 550 nm using ethanol (95%). Methanol (2.5 %) and myxovalargin A (250 –2 μg/mL) were used as negative control and positive control, respectively. The assay was conducted for […]
(§1) Table S2: Selected azaphilones were tested against the formation of biofilm of S. aureus, P. aeruginosa as well as C. auris and dispersal effect on preformed biofilm of S. aureus compared to solvent control (= 0%), respectively. SDs are shown as ±SD.
(§2) Compounds Strains Concentrations [µg/mL] […]

[2] = test system: murine fibroblasts (L929) and human endocervical adenocarcinoma cells (KB-3-1); test: MTT cytotoxicity, range stated over both cell lines; details: range over Rut A and Rut B and over L929 and KB-3-1
Description: (§3) Cytotoxic effects were evaluated on human endocervical adenocarcinoma KB-3-1 [ACC 158] cells and mouse fibroblasts L929 [ACC 2] upon treatment with Rub C, W, and Rut A and B within the concentration range of 37 μg/mL–0.63 ng/mL. The half-maximum inhibitory concentrations (IC50) were determined by standard MTT assays as reported previously (see the Supplementary Material for detailed information). The IC50 values of Rub A and Z have currently been reported. […]
KB-3-1 (ACC 158) cervix carcinoma as well as L929 (ACC 2) mouse fibroblasts were cultured under standard cell culture conditions (37 °C, 5% CO2, 95% humidified atmosphere). […] The cultures were routinely monitored for potential contamination, and only mycoplasma free cultures were used. […]
(§4) Absorbances at 570 nm and 630 nm were measured with a plate reader (Tecan, Männedorf, canton of Zürich, Switzerland). Background absorbance (630 nm) was subtracted from the formazan signal (570 nm). The resulting absorbance is directly proportional to the amount of viable cells. The control was normalized to 100% viable cells, and the viability of cells treated with the test compounds was calculated accordingly. IC50 values were calculated based on a sigmoidal fit model using GraphPad Prism. Means and SD were calculated from at least four independent experiments. […]

[3] = test system: mouse fibroblasts L929 [ACC 2]; test: MTT cytotoxicity assay, L929; details: MTT, tested 37 μg/mL–0.63 ng/mL, read-out: IC50
Description: as §3
(§5) KB-3-1 (ACC 158) cervix carcinoma as well as L929 (ACC 2) mouse fibroblasts were cultured under standard cell culture conditions (37 °C, 5% CO2, 95% humidified atmosphere). The cells were maintained in high glucose DMEM containing 10% fetal bovine serum and 100 U/mL penicillin and streptomycin (Gibco, Thermo Fisher Scientific, Waltham, USA). Cell lines were serially passaged after trypsinization, using 0.05% trypsin / 0.02% EDTA solution. The cultures were routinely monitored for potential contamination, and only mycoplasma free cultures were used. The test compounds were investigated for their anti-proliferative effect on cell lines, using the 3-(4,5-dimethylthiazol-2-yl)-2,5-diphenyltetrazolium bromide (MTT) based cell viability assay. Cells were seeded in 96 well microtiter plates (Sarstedt, Germany) with a cell density of 0.05 * 10^6 cells per mL and 100 μL per well and were incubated for 24 h. […]
as §4

[4] = test system: Staphylococcus aureus (DSM 1104) biofilm; test: Crystal violet biofilm inhibition assay, S. aureus; details: for inhibitory effects against the biofilm formation of S. aureus: CV assay; for inhibition at 2 µg/mL / inhibition at 3.9 µg/mL / inhibition at 7.8 µg/mL / inhibition at 15.6 µg/mL / inhibition at 31.3 µg/mL / inhibition at 62.5 µg/mL / inhibition at 125 µg/mL / inhibition at 250 µg/mL: Staphylococcus aureus, DSM1104, read-out: inhibition of S. aureus biofilm formation compared to solvent control (= 0%)
Description: Selected azaphilones Rub C and W, Rut A and B were tested against the formation of biofilms in Staphylococcus aureus (DSM 1104). S. aureus DSM 1104 from a −20 °C stock was precultured in 25 mL CASO (casein-peptone soymeal-peptone) medium in a 250 mL flask at 37 °C with 100 rpm for 20 h. The OD600 of the culture solution was adjusted to 0.001 McFarland standard and incubated in 96-well microtiter plates (TPP tissue culture ref.no 92196, Switzerland) for 18 h at 37 °C with 150 μL of serially diluted test […]
compounds (250–2 μg/mL) in CASO with 4% glucose broth. The inhibition of biofilm formation was evaluated by staining with 150 μL of 0.1% crystal violet (CV; Thermo Fisher) following previously established protocols. In the next step, the supernatant of the 96-well plate was discarded and the wells were rinsed once with PBS buffer. The remaining biofilms were stained at room temperature for 15 min, rinsed three times with PBS buffer, and finally dissolved in 150 μL ethanol (95%). The absorbance of the resulting solution at 530 nm was quantified using a plate reader (Synergy 2, BioTek). Methanol (2.5%) and microporenic acid A (MAA) (250–2 μg/mL) were used as negative and positive controls. Standard deviations (SD) of two repeats with duplicates were 10% or less. […]
μg/mL) were used as negative control and positive control, respectively. The assay was conducted for […]
as §1, §2

[5] = test system: human endocervical adenocarcinoma KB-3-1 [ACC 158] cells; test: MTT cytotoxicity assay, KB-3-1; details: KB-3-1, MTT, tested 37 μg/mL–0.63 ng/mL, read-out: IC50
Description: as §3, §5, §4

## CC(=O)OC/C=C/C1=CC2=C(CO1)C(=O)[C@@](C)(OC(=O)c1c(C)cc(O)cc1O)C(=O)/C2=C\C=C\C1=CC2=C(CO1)C(=O)[C@@](C)(OC(=O)c1c(C)cc(O)cc1O)[C@@H](O)C2 [Rut B, rutilin B]
[1]
  inhibition at 2 µg/mL: < 20%
  inhibition at 3.9 µg/mL: < 20%
  inhibition at 7.8 µg/mL: < 20%
  inhibition at 15.6 µg/mL: < 20%
  inhibition at 31.3 µg/mL: < 20%
  inhibition at 62.5 µg/mL: < 20%
  inhibition at 125 µg/mL: < 20%
  inhibition at 250 µg/mL: < 20%
[2]
  IC50: 1.1 µM to 2.2 µM and 0.9 µg/mL to 1.8 µg/mL
[3]
  IC50: 2200 nM
[4]
  inhibitory effects against the biofilm formation of S. aureus: moderate inhibitory effects
  inhibition at 2 µg/mL: 86 ± 2%
  inhibition at 3.9 µg/mL: 88 ± 1%
  inhibition at 7.8 µg/mL: 88 ± 1%
  inhibition at 15.6 µg/mL: 87 ± 2%
  inhibition at 31.3 µg/mL: 86 ± 2%
  inhibition at 62.5 µg/mL: 86 ± 2%
  inhibition at 125 µg/mL: 85 ± 2%
  inhibition at 250 µg/mL: 84 ± 2%
[5]
  IC50: 1500 nM

## CC(=O)OC/C=C/C1=CC2=C(CO1)C(=O)[C@@](C)(OC(=O)c1c(C)cc(O)cc1O)C(=O)/C2=C\C=C\C1=CC2=C(CO1)C(=O)[C@@](C)(O)[C@@H](OC(=O)c1c(C)cc(O)cc1O)C2 [Rut A, rutilin A]
[1]
  inhibition at 2 µg/mL: < 20%
  inhibition at 3.9 µg/mL: < 20%
  inhibition at 7.8 µg/mL: < 20%
  inhibition at 15.6 µg/mL: < 20%
  inhibition at 31.3 µg/mL: < 20%
  inhibition at 62.5 µg/mL: < 20%
  inhibition at 125 µg/mL: < 20%
  inhibition at 250 µg/mL: < 20%
[2]
  IC50: 1.1 µM to 2.2 µM and 0.9 µg/mL to 1.8 µg/mL
[3]
  IC50: 1200 nM
[4]
  inhibitory effects against the biofilm formation of S. aureus: moderate inhibitory effects
  inhibition at 2 µg/mL: < 20%
  inhibition at 3.9 µg/mL: < 20%
  inhibition at 7.8 µg/mL: < 20%
  inhibition at 15.6 µg/mL: 21 ± 2%
  inhibition at 31.3 µg/mL: 51 ± 10%
  inhibition at 62.5 µg/mL: 51 ± 10%
  inhibition at 125 µg/mL: 55 ± 9%
  inhibition at 250 µg/mL: 60 ± 6%
[5]
  IC50: 1100 nM
